Data as given in patent US3985884A, “Complement inhibitors” (American Cyanamid Company, priority 1975, dated 1976).
Where a name gives a salt, the structure may show the parent alone.

System: complement level
Assay: Complement Level Reduction Test
Type: in vivo
Conditions: serum of dosed guinea pigs, undiluted serum capillary tube method, compared to undosed controls

Structure (SMILES): O=C(Nc1ccc(-n2nc3ccc4cc(S(=O)(=O)O)cc(O)c4c3n2)c(S(=O)(=O)O)c1)Nc1ccc(-n2nc3ccc4cc(S(=O)(=O)O)cc(O)c4c3n2)c(S(=O)(=O)O)c1 [3,3'-Ureylenebis[6-(9-hydroxy-7-sulfo-2H-naphtho[1,2-d]triazol-2-yl)benzenesulfonic acid] tetrasodium salt]
- % Reduction Complement, In Vivo: 42%
